Laboratory results as given in publication PMC3678512, “Synthesis and physicochemical characterization of novel phenotypic probes targeting the nuclear factor-kappa B signaling pathway” (Beilstein Journal of Organic Chemistry, 2013).
Converted amounts (≈) assume the structure as drawn. Where two headings read alike, the source gives them in different places.

Legend:
NOD1 = target: T1, NOD1 (Homo sapiens, UniProt Q9Y239); test: γ-tri-DAP-stimulated luciferase production in HEK 293T cells (NF-κB-linked reporter assay); assay type: cell-based; conditions: HEK 293T cells with endogenous NOD1, NF-κB-linked reporter; read-out: IC50, inhibition of γ-tri-DAP-stimulated luciferase production
T1 construct: luciferase production in HEK 293T cells, which has endogenous NOD1 levels; endogenous in cells; host or cells: HEK 293T
T1 sequence (Q9Y239 1-953): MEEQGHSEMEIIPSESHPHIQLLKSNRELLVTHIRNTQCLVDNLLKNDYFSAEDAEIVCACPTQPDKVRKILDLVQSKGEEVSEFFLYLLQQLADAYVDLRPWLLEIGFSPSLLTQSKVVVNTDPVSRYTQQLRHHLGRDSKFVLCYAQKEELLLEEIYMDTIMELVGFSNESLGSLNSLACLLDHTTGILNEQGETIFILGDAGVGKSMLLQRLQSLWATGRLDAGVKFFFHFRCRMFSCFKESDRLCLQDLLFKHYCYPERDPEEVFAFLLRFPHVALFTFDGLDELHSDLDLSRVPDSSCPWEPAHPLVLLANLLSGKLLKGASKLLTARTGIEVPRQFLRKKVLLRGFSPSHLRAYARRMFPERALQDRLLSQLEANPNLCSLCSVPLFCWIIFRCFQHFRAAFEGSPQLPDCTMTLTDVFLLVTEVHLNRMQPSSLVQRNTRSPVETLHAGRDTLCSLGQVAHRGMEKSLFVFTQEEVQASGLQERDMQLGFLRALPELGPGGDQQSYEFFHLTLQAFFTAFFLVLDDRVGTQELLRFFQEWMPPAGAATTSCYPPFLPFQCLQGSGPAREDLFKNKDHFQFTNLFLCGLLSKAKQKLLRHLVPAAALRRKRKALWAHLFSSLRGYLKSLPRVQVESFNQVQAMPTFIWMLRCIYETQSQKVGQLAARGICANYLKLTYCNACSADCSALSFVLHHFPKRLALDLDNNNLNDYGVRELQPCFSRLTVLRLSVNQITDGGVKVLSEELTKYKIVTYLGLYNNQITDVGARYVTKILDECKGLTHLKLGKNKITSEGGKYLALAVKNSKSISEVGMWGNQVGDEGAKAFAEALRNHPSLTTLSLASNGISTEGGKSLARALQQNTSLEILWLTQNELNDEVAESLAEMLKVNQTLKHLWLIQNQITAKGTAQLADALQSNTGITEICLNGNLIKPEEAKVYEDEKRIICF

NOD2 = test: MDP-stimulated signal transduction in NOD2 reporter cell lines; assay type: cell-based; conditions: reporter cell lines with low or overexpressed NOD2
[1] = system: non-NOD-stimulated NF-κB pathways; test: Non-NOD-stimulated NF-κB pathway reporter assays (TNF-α, doxorubicin, PMA/ionomycin); assay type: cell-based; conditions: doxorubicin and PMA/ionomycin reporter assays
[2] = system: NOD1 (γ-tri-DAP) dependent IL-8 secretion; test: NOD1 (γ-tri-DAP) dependent IL-8 secretion; assay type: cell-based
[3] = system: NOD2-dependent IL-8 secretion in MCF-7 cells; test: NOD2-dependent IL-8 secretion in MCF-7 cells; assay type: cell-based
[4] = system: TNF-α-dependent IL-8 secretion in MCF-7 cells; test: TNF-α-dependent IL-8 secretion in MCF-7 cells; assay type: cell-based
Aqueous solubility = assay type: physicochemical; conditions: for solubility: aqueous medium
Procedure: (§1) The probes were evaluated using known in vitro ADME/T assays to understand their overall pharmacological properties (Table 2). […] The PAMPA (parallel artificial membrane permeability assay) assay is used as an in vitro model of passive, transcellular permeability. An artificial membrane immobilized on a filter is placed between a donor and acceptor compartment. […] It is not yet known whether it represents a species specific CPY450 inhibitor.

[5] = PAMPA (parallel artificial membrane permeability assay); assay type: in vitro ADME
Procedure: as §1

[6] = Hepatic microsome stability, human; assay type: in vitro ADME; conditions: human, compound at 1 μM, 60 min
Procedure: as §1

[7] = Hepatic microsome stability, mouse; assay type: in vitro ADME; conditions: compound at 1 μM, 60 min
Procedure: as §1

[8] = Hepatic toxicity in immortalized human hepatocytes; assay type: cell-based; conditions: Fa2N-4 immortalized human hepatocytes, read-out: Hepatic toxicity LC50
Procedure: as §1

Which results are given for `C/C=C/Cn1c(SCCCc2ccccc2)nc2c1c(=O)[nH]c(=O)n2C` [Probe 17]?
IC50 (NOD1): 1.54 µM; Selectivity for NOD1-dependent over MDP-stimulated (NOD2-dependent) signal transduction (NOD2): > 8 fold; Selectivity over non-NOD-stimulated NF-κB pathways [1]: selective; Inhibition of NOD1 (γ-tri-DAP) dependent IL-8 secretion [2]: selectively inhibited IL-8 secretion; Inhibition of NOD2-dependent IL-8 secretion [3]: neither inhibited; Inhibition of TNF-α-dependent IL-8 secretion [4]: neither inhibited; Solubility (in words) (Aqueous solubility; across pH 5 to 7.4): lowest solubility; solubility (Aqueous solubility; aqueous buffer, pH 5.0, read-out: Aqueous solubility pH 5.0): 1.5 µM (≈ 0.556 µg/mL); solubility (Aqueous solubility; pH 6.2, aqueous buffer, read-out: Aqueous solubility pH 6.2): 1.8 µM (≈ 0.667 µg/mL); solubility (Aqueous solubility; pH 7.4, aqueous buffer, read-out: Aqueous solubility pH 7.4): 1.7 µM (≈ 0.63 µg/mL); PAMPA Pe, donor pH 5.0 ([5]; donor pH 5.0, acceptor pH 7.4, compound at 50 μM): 1269 10^−6 cm/s; PAMPA Pe, donor pH 6.2 ([5]; donor pH 6.2, acceptor pH 7.4, compound at 50 μM): 1516 10^−6 cm/s; PAMPA Pe, donor pH 7.4 ([5]; donor pH 7.4, acceptor pH 7.4, compound at 50 μM): 1344 10^−6 cm/s; Hepatic microsome stability, human (% remaining) [6]: 8.8 % remaining; Hepatic microsome stability, mouse (% remaining) [7]: 0.86 % remaining; CC50 [8]: > 50 µM
